Test results: patent US7026505B2, “Method of treating tinnitus” (Warner-Lambert Company, priority 2002, dated 2006)
Structures can show the parent of a compound that is named as a salt.

melting point [°C] | Structure (SMILES)
196 to 199 | CS(=O)(=O)NCCC1(CN)CCCCC1.Cl
183 to 185 | CC(C)CC(CN)Cc1noc(=S)[nH]1.Cl (stereo not shown)
210 to 212 | Cl.NCC1(Cc2noc(=S)[nH]2)CCCCC1
160 to 170 | CCCC(C(C)C)C(CN)CC(=O)O (stereo not shown) (as salt: HCl)
